Results as given in BindingDB's records for doi:10.1021/jm100571n (Novartis Institutes For Biomedical Research, 2010).

Key:
[1] = biological target: Tyrosine-protein kinase SYK (Homo sapiens) (UniProt P43405); test: Inhibition of SYK
[2] = biological target: 3-phosphoinositide-dependent protein kinase 1 (Homo sapiens) (UniProt O15530); test: Inhibition of PDK1

## CC(C)c1n[nH]c(Cl)c1-c1ccnc(Nc2ccc(N3CCC(N(C)C)CC3)cn2)n1 [4-(5-Chloro-3-isopropyl-1H-pyrazol-4-yl)-N-(5-(4-(dimethylamino)piperidin-1-yl)pyridin-2-yl)pyrimidin-2-amine]
[1]
  IC50: > 10 µM
[2]
  IC50: > 10 µM

## CC(C)c1[nH]nc(C(F)(F)F)c1-c1ccnc(Nc2ccc(N3CCC(N(C)C)CC3)cn2)n1 [N*6'*-[4-(5-Isopropyl-3-trifluoromethyl-1H-pyrazol-4-yl)-pyrimidin-2-yl]-N*4*,N*4*-dimethyl-3,4,5,6-tetrahydro-2H-[1,3']-bipyridinyl-4,6'-diamine]
[1]
  IC50: > 10 µM
[2]
  IC50: > 10 µM
